Laboratory results as given in article PMC5131266 (Scientific Reports, 2016).

What was measured:
MPER-TM1 = experiment: Cell-lysate ELISA, MPER-TM1; format: binding, HIV-1; conditions: 293T cell lysates, 20 nM IgG or Fab, normalized to 20 nM 17/9 IgG
MPER-PDGFR = experiment: Cell-lysate ELISA, MPER-PDGFR; format: binding, HIV-1; conditions: 293T cell lysates, 20 nM IgG or Fab, normalized to 20 nM 17/9 IgG
[1] = test system: SIVs that infect chimpanzees and gorillas; conditions: cited from earlier work
Description: (§1) The 10E8 antibody achieves potent and broad HIV-1 neutralization by targeting the membrane-proximal external region of gp41 (MPER)[1][2]. […] The exceptionally high degree of conservation of the MPER sequence[4][5] justifies immunotherapeutic approaches based on the 10E8 antibody.

[2] = test system: simian immunodeficiency virus-HIV chimera; conditions: rhesus macaques; cited from earlier work
Description: as §1

HIV-1 = conditions: cited from earlier work
[3] = target: HIV-1 Env of JRCSF on pseudovirus particles (HIV-1 group M subtype B, isolate JRCSF, UniProt P20871); experiment: far-Western, overlay or dot blot; dot blot: decreasing amounts of PsV spotted on nitrocellulose, probed with Fab (0.2 ug/ml) in 5% milk in PBS, 1 h, room temperature; conditions: one partner purified

Molecule | binding to MPER-TM1 (MPER-TM1) | binding to MPER-PDGFR (MPER-PDGFR) | neutralization potency [1] | protection against infection [2] | mean IC50 (HIV-1) | binding result [3]
10E8 IgG: broadly neutralizing anti-HIV-1 gp41 MPER antibody 10E8, IgG | bind tightly | poor ligand | nanomolar potency | complete protection | below 1 μg/mL | –
10E8 WT Fab: recombinant unmodified Fab of anti-HIV-1 gp41 MPER antibody 10E8 | comparable degree of binding | poor ligand | – | – | – | –
10E8 Fab (Fab, V domains shown, also called Fab 10E8; WT) VH: EVQLVESGGGLVKPGGSLRLSCSASGFDFDNAWMTWVRQPPGKGLEWVGRITGPGEGWSVDYAAPVEGRFTISRLNSINFLYLEMNNLRMEDSGLYFCARTGKYYDFWSGYPPGEEYFQDWGRGTLVTVSS VL: SYELTQETGVSVALGRTVTITCRGDSLRSHYASWYQKKPGQAPILLFYGKNNRPSGVPDRFSGSASGNRASLTISGAQAEDDAEYYCSSRDKSGSRLSVFGGGTKLTVL | – | – | – | – | – | binds
